Experimental data: patent US6406679B1, “Use of HL-60-related lectins in drug delivery and detection of lectin-expressing cells” (Incyte Pharmaceuticals, Inc., priority 1992, dated 2002)
Several values for one entry are separate records, joined by “and”; a condition that tells them apart may be missing. Equal entries are not always repeated.

Legend:
rat lymphocytes = experiment: Binding to sections of lymphoid organs (lymph nodes and Peyer's patch); format: cell-based; settings: control level binding very low, result cannot be relied on
Method: Sections of lymphoid organs (lymph nodes and Peyer's patch) were tested as above.

established T-cell lines = experiment: Lectin added to established T-cell lines; format: cell-based, rat; settings: lectin added in vitro
Description: In a follow-up experiment, T-cell lines were selected from the draining lymph nodes.

Lewis rat = experiment: Experimental autoimmune encephalomyelitis (EAE) induced with GPBP/CFA; format: in vivo
Description: Experimental autoimmune encephalomyelitis (EAE) is a T-cell-mediated disease considered to be a useful model for human paralytic and demyelinating diseases such as multiple sclerosis (Vandenbark, A. et al., J. Immunol. (1985) 135:223). In the Lewis rat, paralytic signs of EAE are induced about 14 days after injecting guinea pig myelin basic protein (GPBP) in Complete Freund's Adjuvant (CFA). It has been shown by Offner, H. et al. (J. Immunol. (1988) 141:3288) that T-cells specific for GPBP in immunized rats recognize amino acid residues 72-89 of GPBP and have the ability to transfer both clinical signs of EAE and delayed-type hypersensitivity reaction to GPBP to other animals.
In the studies reported in this example, EAE was induced by injection of GPBP/CFA as described above.
In one protocol intravenous administration of lectin was started at day 0 relative to 50 μg GPBP/CFA injection, with additional lectin treatment at days 3 and 6. The severity of the disease was determined clinically and histologically:
“Clinical” Ratings are as Follows:
3=Hind quarter paralysis.
“Histologic” Ratings are as Follows:
Slides were examined for degree of inflammation with ratings as follows:
0.5=a few infiltrating cells in the meninges;
1=meningeal infiltration, more organized and concentrated around blood vessels;
2-4=increasing intensity of meningeal infiltration and perivascular cuffing in the CNS parenchyma.
In a second protocol, lectin was first administered three days before immunization with 50 μg GPBP/CFA and was followed by daily injections until day 7 after immunization.
In an additional experiment, animals were given various doses of lectin on days 0-12, following the administration of 10 μg GPBP injected intramuscularly.

mice immunized with AChR = experiment: EAMG: muscle acetylcholine receptor content and Ig-complexed AChR; format: in vivo, mouse; settings: for % of AChR Complexed with Ig / Carcass AChR Content: 10 days after injection
Method: After the observation period, the animals were sacrificed, skinned, and eviscerated; and a cholinergic receptor (AChR) extract was prepared as described by Lefvert, A. K. et al., Scand. J. Immunol. supra for determination of total AChR content and Ig-complexed AChR content, as described therein.
Briefly, to determine total AChR content, known portions of the AChR extracts were incubated with a ten-fold excess of ^125I-alpha-bungarotoxin for 1 hour at 37° C. so as to label the receptor for quantitation. The mixture was subjected to gel filtration on Sephacryl G200 to separate free and bound toxin. To determine the amount of AChR complexed to IgG or IgM antibodies, the extract was incubated with a ten-fold excess of labeled bungarotoxin overnight at 4° C.; anti-mouse IgG or IgM was then added and the samples incubated overnight at 4° C., followed by separation of the precipitates, washing and counting.

SJL/J mice = experiment: EAE relapse murine model; format: in vivo, mouse; settings: 50 μg i.v. days 13 and 15, 100 μg i.v. daily days 18-24, FIG. 13
Description: In mice, symptoms of EAE can be made to occur in cyclical fashion by boosting the animals with antigen following each cycle, and each cycle becomes more severe until death ultimately occurs. This is a useful model in which to determine therapeutic efficacy, since it closely mimics both the chronic disease relapses and the acute demyelination associated with multiple sclerosis. In this experiment, 20 female SJL/J mice were immunized with lyophilized spinal cord extract dissolved in PBS plus CFA on days 0, 7 and 21. Ten mice were injected with recombinant lectin, and ten mice were given buffer only. The lectin-treated mice received 50 μg lectin on days 13 and 15 intravenously in the tail vein, and an additional 100 μg i.v. daily from day 18 through day 24. Mice were followed until death or sacrifice at day 42.
The results in FIG. 13 are mean clinical scores for control and lectin-treated mice.

[1] = test system: Rat lymph node lymphocytes; experiment: Agglutination of cells treated with lectin; format: cell-based; settings: 250 μg/ml lectin, on ice 30 min
Method: (§1) To analyze the mechanism of action of the inventive lectins as immunomodulators, a test was devised to discover whether these lectins bind lymphocytes and/or T-cells to endothelial cells. Thin sections of tissue containing inflamed rat brain vascular endothelium were prepared. Rat lymph node lymphocytes and human T-cells of the Jurkat line (10^7/ml in Dulbecco's modified Eagle medium (MEM) with 5% fetal bovine serum (FBS)) were treated with 250 μg/ml of the lectin of Example 1, with the lectin plus 1 mM beta-lactose, or with no additions and subsequently were placed on ice for 30 min. […] These effects were not observed when beta-lactose was added or when there were no additions.

[2] = test system: human T-cells of the Jurkat line; experiment: Agglutination of cells treated with lectin; format: cell-based; settings: 250 μg/ml lectin, on ice 30 min
Method: as §1

Lewis rats = experiment: Rat heart transplantation, lectin combined with cyclosporin; format: in vivo; settings: Group A: Cyclosporin 0, Lectin 2.5 mg/kg/day
Description: The heart transplant model of paragraph A was used. Five groups of 5 Lewis rats received hearts from Brown Norway rats and were given the following drugs by group, as shown in Table 8:
Cyclosporin i.p. was started the day of the graft and continued daily. Recombinant lectin was started two days prior to transplant and continued daily.

[3] = 250 μg lectin Days −3 to 6 daily
[4] = 250 μg lectin Days −3 to 6 daily, background subtracted
[5] = 250 μg lectin Days −3 to 6 daily, scale 0-4

## Lectin: Soluble 14 kD β-galactoside-binding HL-60/placenta lectin of FIG. 1 (SEQ ID NO:2), prepared recombinantly in E. coli
Rat lymphocytes
  Effect on binding of rat lymphocytes to lymphoid organ sections: no noticeable effect
Established T-cell lines
  effect on established T-cell lines: no inhibitory effect
Lewis rat; 250 μg lectin Days 0, 3, 6
  Duration: 3.0 days and 3 days
  Loss of Weight: 20 g
Lewis rat; 250 μg lectin Days 0, 3, 6, scale 0-4
  Severity of Disease, Histological Rating: 3.5
Lewis rat; [3]
  Duration (days): 0^3 days
  Loss of Weight (g): None^3
Lewis rat; [4]
  GPBP DTH (delayed type hypersensitivity reaction, swelling): 9 mm/100
  PPD DTH (delayed type hypersensitivity reaction, swelling): 4 mm/100
Lewis rat; [5]
  Clinical Severity of Disease: 0^3/
  Histologic Severity of Disease: 0.50^3
Lewis rat; 250 μg lectin i.v. Days 0, 3, 6, 50 μg GPBP/CFA
  Day of Onset: 17 days
Lewis rat; 10-1500 μg intraperitoneally days 0-12, 10 μg GPBP, FIGS. 10 and 11
  daily dosage optimal for ameliorating the symptoms: 500 µg
Lewis rat; lectin from three days before immunization, daily until day 7
  development of the disease (EAE): prevented completely
Mice immunized with AChR; AChR + lectin 0.1 μg
  % of AChR Complexed with Ig: 48 ± 6.0%
  Carcass AChR Content: 0.8 ± 0.4 mol × 10^−11
Mice immunized with AChR; AChR + lectin 1 μg
  % of AChR Complexed with Ig: 52 ± 2.0%
  Carcass AChR Content: 1.4 ± 0.3 mol × 10^−11
Mice immunized with AChR; AChR + lectin 5 μg
  % of AChR Complexed with Ig: 44 ± 5.0%
  Carcass AChR Content: 0.9 ± 0.5 mol × 10^−11
Mice immunized with AChR; AChR + lectin 15 μg
  % of AChR Complexed with Ig: 11 ± 10.7%
  Carcass AChR Content: 3.5 ± 0.4 mol × 10^−11
Mice immunized with AChR; AChR + lectin 25 μg
  % of AChR Complexed with Ig: 11 ± 7.8%
  Carcass AChR Content: 3.2 ± 0.6 mol × 10^−11
Mice immunized with AChR; single subcutaneous doses of about 7.5-12 μg
  AChR loss and amount of Ig-complexed AChR: lowered
SJL/J mice
  mean clinical scores, first cycle: improved clinical scores
  survival and clinical scores, second cycle: improved survival and clinical scores
[1]
  Clumping of rat lymphocytes: moderately clumped
[2]
  Agglutination of T-cells: severely agglutinated
Lewis rats
  Survivors on Day 16: 0/5
